The values below are quoted from earlier work in patent US8377904B2, “Composition and method for use in cartilage affecting conditions” (Hill's Pet Nutrition, Inc., priority 2004, dated 2013).

This data set has as its system pain of osteoarthritis.

Regarding `C[S+](CC[C@H](N)C(=O)[O-])C[C@H]1O[C@@H](n2cnc3c(N)ncnc32)[C@H](O)[C@@H]1O` (some centres unmarked) [SAMe, S-adenosyl-L methionine], the “Outcome compared with non-steroidal anti-inflammatory medication” value (meta analysis) is on record as “not associated with statistically significant difference in outcomes”. Besides, the “effective size in favor of SAMe compared to a placebo” value (one randomized clinical trial) is listed as 0.20.
